One test concerns MCD diet-induced MASH. The test is described as follows: MCD diet-induced MASH mice, long-term model. Format: in vivo, mouse. The note with it: oral, 4 weeks, DC646 10 mg/kg, GUDCA 50 mg/kg. How it is done: For the long-term MASH model, 8- to 10-week-old male C57BL/6 J mice were fed with an MCS diet or MCD diet for 2 weeks, before the MCD models were administered with vehicle or GUDCA (50 mg/kg), OCA (30 mg/kg), and DC646 (10 mg/kg) for 4 weeks. The serum, liver, and intestine were collected 2 h after the final dosing. Male Fxr^△IE mice (8–10 weeks old) were fed with a GAN diet for 20 weeks and administered with vehicle or DC646 (10 mg/kg) from the 12th week for 8 weeks. The serum, liver, and intestine were collected 2 h after the final dosing.
The intestine and liver were frozen in liquid nitrogen and stored at −80°C. RNA was extracted, and complementary DNA was synthesized from 1 μg total RNA. RT-qPCR was performed on a Bio-Rad CFX384 Touch detection system (Bio-Rad). The primer sequences for RT-qPCR are shown in Supplementary Table S5. RNA levels were analyzed by 2-^ΔΔCt, normalized to 18S ribosomal RNA and expressed as fold change relative to the control group.
Hepatic TG and TC, and plasma ALT and AST levels were measured using commercial kits from Nanjing Jiancheng Bioengineering Institute according to the manufacturer’s instructions. To measure hepatic TG contents, liver tissues (~10 mg) were homogenized in 100 μL 1% TritonX-100 and centrifuged at 3000 rpm for 10 min. Supernatants were collected, and 2 μL samples were incubated with 200 μL reaction buffer at 37°C for 10 min. Hepatic TG or TC levels were read at 510 or 500 nm using a microplate reader (Versamax, Molecular Devices) and normalized using the protein concentration. To measure plasma ALT and AST levels, reaction buffer 1 and reaction buffer 2 were mixed at a ratio of 1:1, before adding 2 μL plasma sample and 200 μL mixed reaction buffer in a 96-well plate. The data were acquired using the kinetic mode with an interval of 30 s and 31 total reads at 340 nm using a microplate reader (Versamax, Molecular Devices).
Tissue specimens were fixed in 10% formalin for 12–24 h before being dehydrated and paraffin-embedded. The sections were stained with H&E. The NAS was calculated as a summary score including individual components of steatosis (0–3), lobular inflammation (0–3), and hepatocyte ballooning (0–2) for each liver section by a blinded liver pathologist, and the results were reviewed by a blinded hepatologist according to a previous protocol. To visualize liver fibrosis, paraffin-embedded tissue samples were stained with Sirius Red to characterize the collagen deposition. To visualize lipid accumulation and inflammation in the liver, frozen liver sections were stained with Oil Red O and F4/80, and images were acquired using a Leica DM6B laser microdissection system. At least three discontinuous liver sections were evaluated for each mouse.

The target of test [1] is T1, human FXR alpha (hFXRα)-LBD / SRC2-3 peptide (Homo sapiens, UniProt Q96RI1).
T1 construct: 100 nmol/L 6*His-hFXRα-LBD and 100 nmol/L biotinylated co-factor peptide
T1 sequence (Q96RI1 262-486 limits assumed): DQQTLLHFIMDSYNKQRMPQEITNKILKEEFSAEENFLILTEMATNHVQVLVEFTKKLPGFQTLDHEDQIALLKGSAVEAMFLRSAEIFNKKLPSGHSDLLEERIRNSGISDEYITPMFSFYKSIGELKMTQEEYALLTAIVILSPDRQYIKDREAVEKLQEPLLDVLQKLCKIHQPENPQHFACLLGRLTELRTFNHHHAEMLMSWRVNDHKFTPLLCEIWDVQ
The test is described as follows: AlphaScreen assay, recruitment of coactivator peptide SRC2-3 to His-hFXRα-LBD. Format: biochemical. How it is done:
(§1) An AlphaScreen technology-based assay was performed according to the manufacturer’s instructions with a minor revision. Briefly, the experiment was conducted with compounds at the indicated concentrations, 100 nmol/L 6*His-hFXRα-LBD and 100 nmol/L biotinylated co-factor peptide in the buffer containing 50 mmol/L MOPS, 50 μmol/L CHAPS, 50 mmol/L NaF, and 0.1 mg/mL BSA, pH 7.4. The mixture was incubated with 50 μg/mL nickel acceptor beads and 50 μg/mL streptavidin donor beads in a 384-well plate under green light in the dark at room temperature, before conducting fluorescence measurement with excitation at 680 nm and emission at 550 nm on an Envision microplate analyzer (PE 2102-8340, PerkinElmer Life Sciences).

For test [2], the target named is T2, human FXR alpha (hFXRα)-LBD / NcoR2 peptide (Homo sapiens, UniProt Q96RI1).
T2 construct: 100 nmol/L 6*His-hFXRα-LBD and 100 nmol/L biotinylated co-factor peptide
T2 sequence (Q96RI1 262-486 limits assumed): T1 sequence (Q96RI1 262-486 limits assumed)
The test is described as follows: AlphaScreen assay, recruitment of corepressor peptide NcoR2 to His-hFXRα-LBD. Format: biochemical. The note with it: compound alone incubated with His-hFXRα-LBD; read-out: EC50 in recruiting the NcoR2 peptide. How it is done:
as §1

As for `C[C@H](CCC(=O)NCC(=O)O)[C@H]1CC[C@H]2[C@@H]3[C@@H](O)C[C@@H]4C[C@H](O)CC[C@]4(C)[C@H]3CC[C@]12C` [GUDCA, glycoursodeoxycholic acid, reference compound], the “Hepatic mRNA levels of inflammation-related genes” value in the test on MCD diet-induced MASH is listed as “significantly decreased”. For the same compound, the “Hepatic mRNA levels of lipid metabolism-related genes / hepatic lipid accumulation” value in the test on MCD diet-induced MASH (OCA 30 mg/kg) is reported as “only had minor effect”.
Regarding `CC[C@H]1[C@@H](O)[C@@H]2[C@H](CC[C@]3(C)[C@@H]([C@H](C)CCC(=O)O)CC[C@@H]23)[C@@]2(C)CC[C@@H](O)C[C@@H]12` [OCA, reference compound], in the test on MCD diet-induced MASH (OCA 30 mg/kg), the “Hepatic mRNA levels of lipid metabolism-related genes / hepatic lipid accumulation” value is “markedly downregulated” and the “Serum alanine aminotransferase (ALT) level” value is “cannot improve”.
As for Ivermectin [reference compound], the EC50 amounted to 0.96 µM in test [1] (compound alone incubated with His-hFXRα-LBD, read-out: EC50 in recruiting the SRC2-3 peptide) and 2.19 µM in test [2].
For the compound “N,N'-((1^2S,1^4R,14^2S,14^4R,4S,17S)-5,13,18,26-tetraoxo-2^1,15^1-bis(triisopropylsilyl)-2^1H,15^1H-6,19-dioxa-12,25-diaza-1(4,2),14(2,4)-dimorpholina-2,15(4,3)-diindolacyclohexacosaphane-4,17-diyl)bis(1,1,1-trifluoromethanesulfonamide) [DC644]”, the “Inhibition of SRC2-3 recruitment in the presence of CDCA (library screen)” value in test [1] (DC644 at 10 μmol/L compared with GUDCA and GlyMCA at 50 μmol/L) is “more potent”.

The values above are taken from paper PMC11992618, “Development of cyclopeptide inhibitors specifically disrupting FXR–coactivator interaction in the intestine as a novel therapeutic strategy for MASH” (Life Metabolism, 2025).
